The subject of series [1] is CaMKIIδ. Description: Western blot of CaMKIIδ in PE/Ang2-treated HCMs. It counts as cell-based, human. The settings on record: 200 nM miRNA transfected, within 72 hours. How it is done:
(§1) Human cardiomyocytes (HCMs) were subjected to 200 nM phenylephrine (PE) and 10 nM angiotensin 2 (Ang2) to induce hypertrophy (initial stages of heart failure). The HCMs were treated with PE/Ang2 for 24, 48, 72, 96, or 144 hours. Using TransIT-X2 transfection reagent, 200 nM of each miRNA, or in combination, was introduced into PE/Ang2-treated HCMs, followed by analyses of hypertrophic morphology and heart failure gene/protein expression.
(§2) The CTP-miRNA106a conjugate suppressed translation of each protein, as confirmed in three separate experiments. A significant difference was observed between each of the CTP-miRNA106a conjugate-treated set and PE/Ang2-treated HCMs after 144 hours, and no significant difference was observed between each of the CTP-miRNA106a conjugate-treated HCMs and untreated HCMs.
Background: Immunoblotting shows a protein as a band on a membrane.

The subject of series [2] is HDAC4. Description: Western blot of HDAC4 in PE/Ang2-treated HCMs. It counts as cell-based, human. The settings on record: 200 nM miRNA transfected, within 72 hours. Here is the method: as §1, §2
Series [3] has as its system GRK2. The experiment in a line: Western blot of GRK2 in PE/Ang2-treated HCMs. In kind it is cell-based, human. The settings on record: HCMs PE/Ang2 72 hours, then miRNA transfection. Here is the method:
The effects of miRNA17, miRNA20a, miRNA93, and miRNA106a on GRK2 signaling were assessed in HCMs treated with PE/Ang2. GRK2 has been identified to cause heart failure when mis-expressed.
The HCMs were subjected to 72 hours of PE/Ang2 treatment, and were subsequently treated with miRNA17, miRNA20a, miRNA93, or miRNA106a, or with the CTP-miRNA106a conjugate.

Series [4] relates to NfκB response element. Description: NfκB response element luciferase assay in HCMs. In kind it is cell-based, human. The settings on record: Ang2/PE 24 hours, miRNAs transfected. The text has this:
Once in the nucleus NfκB binds to an NfκB response element to initiate transcription of downstream genes. To study how the CTP-miRNA106a conjugate can impact this effect, a plasmid containing an NfκB response element driving luciferase production (Promega, Inc) was used to generate HCMs expressing this NfκB luciferase response element. […] Moreover, the effect of miRNA106a on impacting Ang2/PE-induced luciferase expression in HCMs was compared to miRNA17, miRNA20a, and miRNA93.

Series [5] deals with 3′UTR of PLCβ1. The experiment in a line: PLCβ1 3′UTR luciferase assay in HEK293 cells. It counts as cell-based, human. The settings on record: miRNA transfected 24 hours after plasmid.
For series [6], the system named is Human cardiomyocytes (HCMs). Description: Hypertrophic morphology / cell size of PE/Ang2-treated HCMs. In kind it is cell-based. The settings on record: 200 nM transfection, 72 hours, no PE/Ang2. Here is the method:
as §1
(§3) HDAC4 localization was also rescued by the CTP-miRNA106a conjugate. HDAC4 is nuclear in untreated HCMs (see FIG. 4, Panel C), but CaMKIIδ phosphorylation promotes HDAC4 movement into the cytoplasm (see FIG. 4, Panel D) (Hohl et al., 2013).

Series [7] relates to CaMKIIδ 3′UTR. Description: 3′UTR-luciferase assay, CaMKIIδ. It counts as cell-based, human. The settings on record: miRNA106a with transfection reagent.
For series [8], the system named is HDAC4 3′UTR. Description: 3′UTR-luciferase assay, HDAC4. It counts as cell-based, human. The settings on record: miRNA106a with transfection reagent.
For series [9], the system named is GRK2 3′UTR. The experiment in a line: 3′UTR-luciferase assay, GRK2 (control). In kind it is cell-based, human. The settings on record: miRNA106a with transfection reagent; control without target sequence.
Series [10] has as its system HDAC4. The experiment in a line: HDAC4 localization by immunofluorescence in HCMs. In kind it is cell-based, human. The settings on record: HCMs PE/Ang2 72 hours, treatment 24 hours.
Excerpt: as §3

For series [11], the system named is HCMs. The experiment in a line: Mitochondrial membrane potential, JC-1 staining of HCMs. It counts as cell-based, human. The settings on record: 200 nM miRNA106a transfected, 72 hours. How it is done: The effects of miRNA106a on mitochondrial health was assessed using the mitochondrial membrane potential (MMP) probe JC-1 staining. Healthy MMP is observed as JC-1 forms J-aggregates that fluoresce red (˜594 nm) while unhealthy MMP is recognized as green (˜488 nm) JC-1 monomers.

Series [12] relates to IL-1β. Description: FACS of IL-1β expressing HCMs. The settings on record: miR106a (without CTP) transfected, then Ang2/PE. It counts as cell-based, human. An excerpt:
(§4) To identify if activation of the NfκB pathway by Ang2/PE led to expression of genes that augment hypertrophy and heart failure, HCMs treated with Ang2/PE or treated with both Ang2/PE and the CTP-miRNA106a conjugated were compared to untreated control HCMs by FACS. […] In summary, the CTP-miRNA106a conjugated suppressed NfκB signaling activated by Ang2/PE.

Series [13] deals with IL-6. The experiment in a line: FACS of IL-6 expressing HCMs. The settings on record: miR106a transfected, then Ang2/PE. It counts as cell-based, human.
Excerpt: as §4

Series [14] has as its system TNF-α. The experiment in a line: FACS of TNF-α expressing HCMs. It counts as cell-based, human. The settings on record: miR106a transfected, then Ang2/PE.
Excerpt: as §4

Series [15] relates to PKC. Description: PKC localization in HCMs (anti-PKCα staining). The settings on record: PMA 30 minutes. It counts as cell-based, human. The text has this:
One potential mechanism of increased PLCβ1 expression is increased PKC activity. Thus, PKC localization was studied in treated HCMs. […] In HCMs treated with Ang2/PE, PKC was translocated to the plasma membrane (FIG. 12, Panel C).

Series [16] concerns Connexin 43 (CNX43). Description: CNX43 phosphorylation in HCMs (immunostaining). In kind it is cell-based, human. The settings on record: HCMs treated with PMA as a control. How it is done:
Gap junction protein Connexin 43 (CNX43) is a known downstream target of PKC activity in cardiomyocytes. Thus, the effects of Ang2/PE and the CTP-microRNA106a on CNX43 in HCMs were studied. CNX43 is phosphorylated on serine 386 by PKCα. In untreated HCMs, gap junctions are prevalent (FIG. 14, Panel A), although only a few junctions are positive for phosphorylation of CNX43 (FIG. 14, Panel B). […] Phosphorylated CNX43 becomes widespread as HCMs are treated with Ang2/PE for 24 hours (FIG. 14, Panels E and F).

Consider “miRNA93: microRNA, RNA sequence CAAAGUGCUGUUCGUGCAGGUAG (SEQ ID NO 4) (listed as RNA, chemistry not given here)”, for which the “CaMKIIδ overexpression induced by PE/Ang2” value in series [1] is “suppressed”. The “HDAC4 overexpression induced by PE/Ang2” value in series [2] is recorded as “suppressed”. Further, the GRK2 expression entry in series [3] was “returned to baseline levels”. The “NfκB response element luciferase expression” value in [4] is “lowered luciferase expression”. In addition, in series [5], the “decrease of luciferase activity” value is about 50%.
For the molecule “miRNA106a: microRNA, RNA sequence AAAAGUGCUUACAGUGCAGGUAG (SEQ ID NO 1) (chemistry not given here)”, the “growth in size (hypertrophy) in response to miRNA106a alone” value in [6] is “did not appear to grow in size”. Moreover, the “CaMKIIδ overexpression induced by PE/Ang2” value in [1] is given as “suppressed”. Also, the “HDAC4 overexpression induced by PE/Ang2” value in series [2] is recorded as “suppressed”. Besides, the “CaMKIIδ 3′UTR luciferase expression” value in [7] is “targets the 3′UTRs of both CaMKIIδ and HDAC4”. Besides, the “HDAC4 3′UTR luciferase expression” value in series [8] is “targets the 3′UTRs of both CaMKIIδ and HDAC4”. Besides, in [9], the “GRK2 3′UTR luciferase expression” value was “no change in luciferase expression”. Besides, the HDAC4 localization result in [10] is reported as “HDAC4 re-entry into the nucleus”. The GRK2 expression entry in series [3] is on record as “returned to baseline levels”. Moreover, in series [11], the “JC-1 red:green ratio versus untreated” value is “no significant difference in red:green ratios”. Also, the “NfκB response element luciferase expression” value in series [4] is recorded as “suppressed luciferase expression significantly”. For the same molecule, in [12], the IL-1β expression result is given as “reversal of IL-1ß expression back to normal, untreated levels”. Also, the IL-6 expression result in series [13] was “very similar results as IL-1β”. For the same molecule, in series [14], the TNF-α expression result is “very similar results as IL-1β”. Moreover, the “decrease of luciferase activity” value in [5] was about 80%.
Turning to `CCCCCCCCCCCCCC(=O)O[C@@H]1[C@@H](C)[C@@]2(O)[C@@H](C=C(CO)C[C@]3(O)C(=O)C(C)=C[C@@H]23)[C@@H]2C(C)(C)[C@]12OC(C)=O` [PMA, phorbal myristate acetate], the PKC localization result in series [15] is reported as “localized to the plasma membrane”. In addition, in [16], the “phosphorylated CNX43” value is recorded as “the phosphorylation patterns are more robust”.
Regarding “miRNA20a: microRNA, RNA sequence UAAAGUGCUUAUAGUGCAGGUAG (SEQ ID NO 3) (listed as RNA, chemistry not given here)”, the “CaMKIIδ overexpression induced by PE/Ang2” value in series [1] is reported as “suppressed”. The “HDAC4 overexpression induced by PE/Ang2” value in [2] is “suppressed”. The GRK2 expression result in series [3] is listed as “returned to baseline levels”. The “NfκB response element luciferase expression” value in [4] was “lowered luciferase expression”.
Take “miRNA17: microRNA, RNA sequence CAAAGUGCUUACAGUGCAGGUAG (SEQ ID NO 2) (listed as RNA, chemistry not given here)”: the “CaMKIIδ overexpression induced by PE/Ang2” value in series [1] was “suppressed”. The “HDAC4 overexpression induced by PE/Ang2” value in series [2] was “suppressed”. In addition, the GRK2 expression entry in [3] was “returned to baseline levels”. In addition, the “NfκB response element luciferase expression” value in [4] was “suppressed luciferase expression significantly”.

Values taken from patent US20250346903A1, “USE OF CONJUGATES OF MICRORNA AND CARDIAC TARGETING PEPTIDES FOR TREATING HEART FAILURE” (Georgetown University, priority 2022, published 2025).
